target: T1, human vasopressin V1b receptor (Homo sapiens, UniProt P47901); assay: Vasopressin V1b receptor binding test; conditions: membranes of CHO-K1 cells with human V1b receptor, displacement of 1.5 nM 3H-AVP; for compounds with more than one stereogenic center the diastereomer with greater affinity
T1 construct: expressed in transfected cells; host or cells: CHO-K1 (cell line hV1b_3H2_CHO), membrane preparation
T1 sequence (P47901 1-424): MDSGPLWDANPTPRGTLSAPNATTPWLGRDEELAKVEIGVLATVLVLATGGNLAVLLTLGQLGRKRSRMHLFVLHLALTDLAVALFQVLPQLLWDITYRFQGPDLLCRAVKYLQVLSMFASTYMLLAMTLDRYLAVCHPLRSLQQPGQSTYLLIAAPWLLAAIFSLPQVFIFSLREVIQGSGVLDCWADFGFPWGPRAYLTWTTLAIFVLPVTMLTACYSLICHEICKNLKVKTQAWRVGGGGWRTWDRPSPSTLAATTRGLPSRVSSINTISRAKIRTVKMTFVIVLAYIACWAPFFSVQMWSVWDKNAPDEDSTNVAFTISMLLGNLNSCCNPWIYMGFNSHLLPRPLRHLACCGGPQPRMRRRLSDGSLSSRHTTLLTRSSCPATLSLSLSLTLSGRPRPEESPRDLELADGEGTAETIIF
Procedure, shortened: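 Radioligand displacement on membranes carrying human V1b receptor in 50 mM tris, 10 mM MgCl2, 0.1% BSA, pH 7.4, 2% DMSO final; 60 min at room temperature, nonspecific binding with 1 μM AVP. Free ligand removed by filtration, bound counted by liquid scintillation, Ki from nonlinear regression of triplicates.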

Ki [nM]	Compound
10 to 100	COc1ccc(S(=O)(=O)N2C(=O)C(c3cc(CNC(C)C)ccc3OC)(N3CCC[C@H]3c3ncco3)c3cc(C#N)ccc32)cc1 (stereo partly drawn) [Example 52, 5-Cyano-3-[5-(isopropylaminomethyl)-2-methoxyphenyl]-1-(4-methoxybenzenesulfonyl)-3-((S)-2-oxazol-2-yl-pyrrolidin-1-yl)-1,3-dihydroindol-2-one]
10 to 100	COc1ccc(S(=O)(=O)N2C(=O)C(c3cc(CN(C)C(C)C)ccc3OC)(N3CCC[C@H]3c3ncco3)c3cc(C#N)ccc32)cc1 (stereo partly drawn) [Example 53, 5-Cyano-3-{5-[(isopropylmethylamino)methyl]-2-methoxyphenyl}-1-(4-methoxybenzenesulfonyl)-3-((S)-2-oxazol-2-yl-pyrrolidin-1-yl)-1,3-dihydroindol-2-one]
10 to 100	COc1ccc(S(=O)(=O)N2C(=O)C(c3cc(CNCCO)ccc3OC)(N3CCC[C@H]3c3ncco3)c3cc(C#N)ccc32)cc1 (stereo partly drawn) [Example 54, 5-Cyano-3-{5-[(2-hydroxyethylamino)methyl]-2-methoxyphenyl}-1-(4-methoxybenzenesulfonyl)-3-((S)-2-oxazol-2-yl-pyrrolidin-1-yl)-1,3-dihydroindol-2-one]
10 to 100	COCCN(C)Cc1ccc(OC)c(C2(N3CCC[C@H]3c3ncco3)C(=O)N(S(=O)(=O)c3ccc(OC)cc3)c3ccc(C#N)cc32)c1 (stereo partly drawn) [Example 55, 5-Cyano-1-(4-methoxybenzenesulfonyl)-3-(2-methoxy-5-{[(2-methoxyethyl)methylamino]methyl}phenyl)-3-((S)-2-oxazol-2-yl-pyrrolidin-1-yl)-1,3-dihydroindol-2-one]
< 10	COc1ccc(S(=O)(=O)N2C(=O)C(c3cc(CN4CCN(C)CC4)ccc3OC)(N3CCC[C@H]3c3ncco3)c3cc(C#N)ccc32)cc1 (stereo partly drawn) [Example 56, 5-Cyano-1-(4-methoxybenzenesulfonyl)-3-[2-methoxy-5-(4-methylpiperazin-1-ylmethyl)phenyl]-3-((S)-2-oxazol-2-yl-pyrrolidin-1-yl)-1,3-dihydroindol-2-one]
< 10	COc1ccc(S(=O)(=O)N2C(=O)C(c3cc(CN4CCNCC4)ccc3OC)(N3CCC[C@H]3c3ncco3)c3cc(C#N)ccc32)cc1 (stereo partly drawn) [Example 57, 5-Cyano-1-(4-methoxybenzenesulfonyl)-3-(2-methoxy-5-piperazin-1-ylmethylphenyl)-3-((S)-2-oxazol-2-yl-pyrrolidin-1-yl)-1,3-dihydroindol-2-one]
10 to 100	COc1ccc(S(=O)(=O)N2C(=O)C(c3cc(CN4CCOCC4)ccc3OC)(N3CCC[C@H]3c3ncco3)c3cc(C#N)ccc32)cc1 (stereo partly drawn) [Example 58, 5-Cyano-1-(4-methoxybenzenesulfonyl)-3-(2-methoxy-5-morpholin-4-ylmethylphenyl)-3-((S)-2-oxazol-2-yl-pyrrolidin-1-yl)-1,3-dihydroindol-2-one]
10 to 100	COc1ccc(S(=O)(=O)N2C(=O)C(c3cc(CN4CCCC4)ccc3OC)(N3CCC[C@H]3c3ncco3)c3cc(C#N)ccc32)cc1 (stereo partly drawn) [Example 60, 5-Cyano-1-(4-methoxybenzenesulfonyl)-3-(2-methoxy-5-pyrrolidin-1-ylmethylphenyl)-3-((S)-2-oxazol-2-yl-pyrrolidin-1-yl)-1,3-dihydroindol-2-one]
10 to 100	COc1ccc(S(=O)(=O)N2C(=O)C(c3cc(CN4CCCCC4)ccc3OC)(N3CCC[C@H]3c3ncco3)c3cc(C#N)ccc32)cc1 (stereo partly drawn) [Example 61, 5-Cyano-1-(4-methoxybenzenesulfonyl)-3-(2-methoxy-5-piperidin-1-ylmethylphenyl)-3-((S)-2-oxazol-2-yl-pyrrolidin-1-yl)-1,3-dihydroindol-2-one]
10 to 100	CNCc1ccc(OC)c(C2(N3CCC[C@H]3c3ncco3)C(=O)N(S(=O)(=O)c3ccc(OC)cc3)c3cc(Cl)c(Cl)cc32)c1 (stereo partly drawn) [Example 63, 5,6-Dichloro-1-(4-methoxybenzenesulfonyl)-3-(2-methoxy-5-methylaminomethylphenyl)-3-((S)-2-oxazol-2-yl-pyrrolidin-1-yl)-1,3-dihydroindol-2-one]

Source: patent US8044079B2, “Substituted oxindole derivatives, medicaments containing said derivatives and use thereof” (Abbott GmbH & Co. KG, priority 2005, dated 2011)
